Assay [1] concerns the target Survival motor neuron protein (Homo sapiens) (UniProt Q16637). Nature of the assay: Modulation of human SMN2 level in NSC34 cells assessed as fold change by ELISA. The assay is classed as cell-based.
Assay [2] concerns the target T1, von Hippel-Lindau disease tumor suppressor (Homo sapiens, UniProt P40337). Nature of the assay: Binding affinity to VHL E3 ligase (unknown origin) by fluorescence polarization (FP) assay.
In assay [3] the target is T1, von Hippel-Lindau disease tumor suppressor. Nature of the assay: Binding affinity to VHL E3 ligase (unknown origin) assessed as dissociation constant by isothermal titration calorimetry assay.

Chain of Survival motor neuron protein (Homo sapiens) (Q16637 whole entry): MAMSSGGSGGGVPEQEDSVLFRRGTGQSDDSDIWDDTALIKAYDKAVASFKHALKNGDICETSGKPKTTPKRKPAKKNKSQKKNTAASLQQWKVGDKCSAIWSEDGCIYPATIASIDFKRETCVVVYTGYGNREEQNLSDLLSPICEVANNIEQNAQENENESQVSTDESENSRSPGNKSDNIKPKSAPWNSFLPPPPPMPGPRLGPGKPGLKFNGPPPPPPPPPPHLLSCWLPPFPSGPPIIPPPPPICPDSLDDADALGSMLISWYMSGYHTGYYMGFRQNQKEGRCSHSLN
T1 sequence (P40337 whole entry): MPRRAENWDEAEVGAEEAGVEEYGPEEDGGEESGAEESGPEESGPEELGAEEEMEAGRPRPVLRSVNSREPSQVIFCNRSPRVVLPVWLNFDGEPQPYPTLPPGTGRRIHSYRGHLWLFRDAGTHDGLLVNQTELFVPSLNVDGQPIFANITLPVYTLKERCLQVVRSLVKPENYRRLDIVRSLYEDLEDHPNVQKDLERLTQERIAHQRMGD

Regarding `CCc1nc(C)cn2nc(-c3cc(=O)n4cc(N5CCN(CC)CC5)ccc4n3)cc12`, in assay [1] (NSC-34, filed as modulator), the EC1.5 came to 23 nM.

`COC(=O)c1ccc(CNC(=O)[C@@H]2C[C@@H](O)CN2C(=O)CC(C)(C)C)cc1` displayed an IC50 in assay [2] of 53.2 µM. Besides, in assay [3], the Kd is 45.5 µM.

Take `Cc1cn2nc(-c3cc(=O)n4cc(N5CCN(C)CC5)ccc4n3)cc2c(C)n1`: in assay [1] (NSC-34, filed as modulator), the EC1.5 came out at 170 nM.

`CCN1CCN(c2ccc3nc(-c4cc5c(C)nc(C)cn5n4)cc(=O)n3c2)CC1`: in assay [1] (NSC-34, filed as modulator), the EC1.5 was found to be 30 nM.

In the case of `CC1(C)CC(Oc2ccc(-c3ccc(-n4cccn4)cc3O)nn2)CC(C)(C)N1`, in assay [1] (NSC-34, filed as modulator), the fold change (FC) is 3.3.

On to `CCCCC(=O)NCCC(=O)N1CCN(c2ccc3nc(-c4cc(F)c5nc(C)cn5c4)cc(=O)n3c2)CC1`, for which the EC1.5 in assay [1] (NSC-34) is > 1000 nM.

Consider `Cc1cn2cc(-c3cc(=O)n4cc(N5CCN(C)CC5)ccc4n3)cc(F)c2n1`, for which the EC1.5 in assay [1] (NSC-34, filed as modulator) turned out to be 15 nM.

For the molecule `CN(c1ccc(-c2ccc(-c3cn[nH]c3)cc2O)nn1)C1CC(C)(C)NC(C)(C)C1`, the fold change (FC) in assay [1] (NSC-34, filed as modulator) is 3.1.

Turning to `CN(c1ccc(-c2ccc(-n3cccn3)cc2O)nn1)C1CC(C)(C)NC(C)(C)C1`, the fold change (FC) in assay [1] (NSC-34, filed as modulator) was found to be 3.1.

Regarding `Oc1cc(-n2cccn2)ccc1-c1ccc(OC2CCNCC2(F)F)nn1` (centres undefined), the fold change (FC) in assay [1] (NSC-34, filed as modulator) worked out at 1.2.

As to `CC1(C)CC(Oc2ccc(-c3ccc(-c4cn[nH]c4)cc3O)nn2)CC(C)(C)N1`, in assay [1] (NSC-34, filed as modulator), the fold change (FC) came to 3.6.

Turning to `C=C(CCNC(=O)CCCC)N1CCN(c2ccc3nc(-c4cc(F)c5nc(C)cn5c4)cc(=O)n3c2)CC1`, in assay [1] (NSC-34, filed as modulator), the EC1.5 was 43 nM.

Take `Cc1cn2nc(-c3cc(=O)n4cc(N5CCNC6(CC6)C5)ccc4n3)cc(C)c2n1`: the EC1.5 in assay [1] (NSC-34, filed as modulator) was determined as 4 nM.

Values taken from ChEMBL document CHEMBL5236575, “Drug Hunting at the Nexus of Medicinal Chemistry and Chemical Biology and the Discovery of Novel Therapeutic Modalities” (J Med Chem, 2022).
